Measured values as given in patent US20110065760A1, “COMPOUNDS FOR THE INHIBITION OF ROTAMASES AND USE THEREOF” (Jerini AG, priority 2002, published 2011).
Where two headings read alike, the source gives them in different places.

Tests used:
hPin1 = hPin1 (Homo sapiens, UniProt Q13526); assay: protease-coupled PPIase assay, hPin1; assay type: biochemical; conditions: 6 nM hPin1, substrate Ac-Ala-Ala-Ser(PO3H2)-Pro-Arg-pNA, trypsin, pH 7.8, 6° C.; read-out: IC50 class, Target T-1 (hPin1)
hFKBP12 = hFKBP12 (Homo sapiens, UniProt P62942); assay: protease-coupled PPIase assay, hFKBP12; assay type: biochemical; conditions: 20 nM hFKBP12, substrate Suc-Ala-Phe-Pro-Phe-pNA, chymotrypsin, pH 7.8, 6° C.; read-out: IC50 class, Target T-2 (hFKBP12)
hCyp18 = hCyp18 (Homo sapiens, UniProt P62937); assay: protease-coupled PPIase assay, hCyp18; assay type: biochemical; conditions: 10 nM hCyp18, substrate Suc-Ala-Phe-Pro-Phe-pNA, chymotrypsin, pH 7.8, 6° C.; read-out: IC50 class, Target T-3 (hCyp18)
LpCyp18 = LpCyp18 (Legionella pneumophila, UniProt Q5ZRZ4); assay: biochemical; conditions: IC50 class, Target T-4 (LpCyp18)
EcParvulin = EcParvulin (Escherichia coli, UniProt P0A9L5); assay: protease-coupled PPIase assay, EcParvulin; assay type: biochemical
Papain = molecular target: T1, Papain (Carica papaya, UniProt P00784); assay: papain assay; assay type: biochemical; conditions: 16 μg/ml papain, 2 mM Bz-DL-Arg-pNA, pH 6.5, 30° C., 30 min incubation; read-out: IC50 class, Target T-6 (Papain)
T1 sequence (P00784 134-345): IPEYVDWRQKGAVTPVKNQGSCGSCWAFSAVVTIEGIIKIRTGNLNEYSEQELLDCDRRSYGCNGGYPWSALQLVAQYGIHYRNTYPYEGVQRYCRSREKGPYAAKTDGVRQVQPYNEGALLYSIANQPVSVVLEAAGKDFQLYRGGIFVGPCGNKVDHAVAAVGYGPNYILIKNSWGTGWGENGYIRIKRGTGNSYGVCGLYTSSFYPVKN
Experimental: (§1) In order to investigate the impact of some of the inventive compounds on the activity of key proteases the following assay was performed: Protease activities were measured spectrophotometrically at 30° C. according to Schomburg and Salzmann (Schomburg, B.; Salzmann M. GBF: Enzyme Handbook. Springer Verlag, Berlin Heidelberg, 1991) and Bergmeyer et al. (Bergmeyer, H. U.; Bergmeyer, J.; Graβl, M. Methods of Enzymatic Analysis, Vol. V Enzymes 3: Peptides, Proteinases and Their Inhibitors. pp 55-371, VCH, Weinheim, 1988). The release of 4-nitroaniline was determined at 390 nm with a Spectramax Plus UV/Vis spectrophotometer (Molecular Devices). The cathepsin B assay was performed in a reaction mixture containing 0.2 μg/ml cathepsin B, 2 mM Z-Arg-Arg-pNA in 88 mM KH2PO4, 12 mM Na2HPO4, 1.33 mM EDTA, 0.03% Brij 35 (pH 5.8). The trypsin assay was carried out in a reaction mixture containing 0.1 μg/ml trypsin and 120 μM Ac-Ala-Ala-Ser(PO3H2)-Pro-Arg-pNA in 35 mM HEPES (pH 7.8) and the papain assay in a mixture consisting of 16 μg/ml papain and 2 mM Bz-DL-Arg-pNA in 10 mM Na2HPO4, 2 mM L-Cys, 5 mM EDTA (pH 6.5). In general, reactions were started by addition of peptide substrate after a 30 min incubation of 1-100 μM effector with given concentrations of enzyme.

cathepsin B = cathepsin B (Homo sapiens, UniProt P07858); assay: cathepsin B assay; assay type: biochemical; conditions: 0.2 μg/ml cathepsin B, 2 mM Z-Arg-Arg-pNA, pH 5.8, 30° C., 30 min incubation; read-out: IC50 class, Target T-8 (Cathepsin)
Experimental: as §1

[1] = WST-1 cytotoxicity assay, HL-60; assay type: cell-based; conditions: human, HL-60 cells (acute myeloid leukemia); WST-1, 48 h incubation; read-out: EC50 class, cytotoxic effect, CL-1 (HL-60)
Experimental: (§2) For this cytotoxic evaluation of the compounds the commercial available WST-1 assay (Roche) was used according to the manufacturer's instructions. The assay is based on the cleavage of the tetrazolium salt WST-1 by mitochondrial dehydrogenases found in viable cells. In general compounds were added to cells cultured in 96-well plates at 37° C. After 48 h of incubation 10 μl of WST-1 solution was added. The formazan dye was analyzed with an ELISA plate reader at (450 vs. 620) nm. CL-1: human acute myeloid leukemia, HL-60 CL-2: human cervix carcinoma, HeLa CL-3: human prostate carcinoma, PC-3 CL-4: human colon adenocarcinoma, Caco-2 CL-5: human breast adenocarcinoma, MCF-7

[2] = WST-1 cytotoxicity assay, HeLa; assay type: cell-based; conditions: human, HeLa cells (cervix carcinoma); WST-1, 48 h incubation; read-out: EC50 class, cytotoxic effect, CL-2 (HeLa)
Experimental: as §2

[3] = WST-1 cytotoxicity assay, PC-3; assay type: cell-based; conditions: human, PC-3 cells (prostate carcinoma); WST-1, 48 h incubation; read-out: EC50 class, cytotoxic effect, CL-3 (PC-3)
Experimental: as §2

[4] = test system: tumor cell lines (HL-60, HeLa, PC-3, Caco-2, MCF-7); assay: WST-1 cytotoxicity assay, tumor cell lines (panel statement); assay type: cell-based, human; conditions: WST-1, 48 h; table 4
Experimental: as §2

[5] = WST-1 cytotoxicity assay, MCF-7; assay type: cell-based; conditions: human, MCF-7 cells (breast adenocarcinoma); WST-1, 48 h incubation; read-out: EC50 class, cytotoxic effect, CL-5 (MCF-7)
Experimental: as §2

Hela cells = assay: DAPI staining; assay type: cell-based, human; conditions: FIG. 3
Experimental: Hela cells grown on poly-L-Lys-coated coverslips were fixed with 2% paraformaldehyde/MeOH.
Cellular DNA was stained with DAPI staining buffer (100 mM Tris (pH 7.4), 150 mM NaCl, 1 mM CaCl2, 0.5 mM MgCl2, 0.1% nonidet P-40, 1 μg/ml DAPI (Molecular Probes)). All the steps were performed at room temperature, and cells were washed two times with PBS after each step. Finally, cells were mounted in 80% glycerol/PBS.

[6] = test system: cyclin D1 in MCF-7 and HeLa cells; assay: Cyclin D1 down regulation (western blot marker analysis); assay type: cell-based, human
Experimental: MCF-7 (5×10^5 cells/well) and HeLa cells (1.5×10^5 cells/well) were seeded in 6-well plates and incubated at 37° C. over night. Compounds or DMSO (final solvent concentration 0.1%) were added to the cells and incubated for different times as indicated. Subsequently, cells were lysed in RIPA buffer for 30 min on ice and centrifuged for 20 min at 4° C. After addition of electrophoresis sample buffer (4×) and 50 mM DTT to the supernatant, samples were boiled for 4 min at 95° C. Samples (equivalent to 2×10^5 cells/well) were run on a 15% SDS gel followed by blotting onto PVDF membrane.
The membrane was blocked for 1 h in 10 mM Tris (pH 7.5), 100 mM NaCl, 0.1% Tween-20 and 5% non-fat dry milk (blocking buffer) and incubated for 1 h with mouse anti-hCyclin D1 monoclonal antibody (clone DCS-6, BD Biosciences) diluted to 1 μg/ml in blocking buffer. Blots were washed 3×10 min with 10 mM Tris (pH 7.5), 100 mM NaCl, 0.1% Tween-20 (washing buffer) and incubated with 0.7 μg/ml peroxidase-conjugated sheep anti-mouse IgG (Sigma) in blocking buffer for 1 h. After washing 3×10 min with washing buffer, the plot was developed with the ECL+ detection kit (Amersham Biosciences).

[7] = WST-1 cytotoxicity assay, Caco-2; assay type: cell-based; conditions: human, Caco-2 cells (colon adenocarcinoma); WST-1, 48 h incubation; read-out: EC50 class, cytotoxic effect, CL-4 (Caco-2)
Experimental: as §2

hFKBP12, sequence (P62942 whole entry): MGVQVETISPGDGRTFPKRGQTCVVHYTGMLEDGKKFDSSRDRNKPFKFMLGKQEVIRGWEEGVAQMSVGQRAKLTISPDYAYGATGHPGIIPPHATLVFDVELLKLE
hPin1, sequence (Q13526 whole entry): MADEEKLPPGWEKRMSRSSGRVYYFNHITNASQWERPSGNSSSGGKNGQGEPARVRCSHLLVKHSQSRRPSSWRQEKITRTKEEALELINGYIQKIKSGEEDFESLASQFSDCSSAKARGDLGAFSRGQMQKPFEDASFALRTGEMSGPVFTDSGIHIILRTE
LpCyp18, sequence (Q5ZRZ4 1-164): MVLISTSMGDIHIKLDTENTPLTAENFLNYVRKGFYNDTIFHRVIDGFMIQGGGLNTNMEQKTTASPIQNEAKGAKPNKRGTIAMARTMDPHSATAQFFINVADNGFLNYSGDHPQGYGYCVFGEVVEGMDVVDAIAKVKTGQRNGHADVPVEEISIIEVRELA
EcParvulin, sequence (P0A9L5 whole entry): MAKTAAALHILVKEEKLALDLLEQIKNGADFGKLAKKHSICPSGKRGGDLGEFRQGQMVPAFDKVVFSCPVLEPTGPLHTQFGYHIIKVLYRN
hCyp18, sequence (P62937 whole entry): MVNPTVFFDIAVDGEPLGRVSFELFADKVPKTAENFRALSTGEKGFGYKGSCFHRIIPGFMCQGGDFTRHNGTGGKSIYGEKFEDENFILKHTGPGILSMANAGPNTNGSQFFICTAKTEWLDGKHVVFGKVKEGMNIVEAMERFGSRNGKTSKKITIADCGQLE

Structure (SMILES) | IC50 (hPin1) | IC50 (hFKBP12) | IC50 (hCyp18) | IC50 (LpCyp18) | IC50 (EcParvulin) | IC50 (Papain) | IC50 (cathepsin B) | IC50 (EcParvulin; 20 nM EcParvulin, substrate Suc-Ala-Phe-Pro-Phe-pNA, chymotrypsin, pH 7.8, 6° C., read-out: IC50 class, Target T-5 (EcParv)) | EC50 at 48 h [1] | EC50 at 48 h [2] | EC50 at 48 h [3] | cytotoxic effect on the tumor cell lines tested [4] | EC50 at 48 h [5] | induction of apoptosis (DAPI staining, fluorescence microscopy) (Hela cells) | cyclin D1 down regulation [6] | EC50 at 48 h [7]
Cc1c(Cl)cc(NC(=O)CC(C)CC(C)(C)C)c(O)c1Cl (stereo not drawn) [Compound 599] | 1000 to 10000 nM | > 100 µM | > 100 µM | 50 to 100 µM | 10 to 50 µM | > 100 µM | 50 to 100 µM |  |  |  |  |  |  |  |  | 
Cc1c(Cl)cc(NCc2cccc(Oc3ccccc3)c2)c(O)c1Cl [Compound 497] |  |  |  |  |  | > 100 µM | 10 to 50 µM |  |  |  |  |  |  |  |  | 
Cc1c(Cl)cc(NCc2ccccc2C(F)(F)F)c(O)c1Cl [Compound 649] |  |  |  |  |  | > 100 µM | 50 to 100 µM |  |  |  |  |  |  |  |  | 
Oc1ccc(NCc2ccccc2Sc2ccc(Cl)cc2)c(O)c1 [Compound 1044] | < 1000 nM | 10 to 50 µM | 10 to 50 µM | 1 to 10 µM |  |  |  | 10 to 50 µM | 10 to 50 µM | 10 to 50 µM | 10 to 50 µM | particular relevance |  |  |  | 
Oc1c(NCc2ccccc2Sc2ccc(Cl)cc2)ccc(F)c1F [Compound 399] | < 1000 nM | > 100 µM | 50 to 100 µM | 50 to 100 µM | 10 to 50 µM | > 100 µM | 10 to 50 µM |  | < 10 µM | < 10 µM | < 10 µM | particular relevance | < 10 µM | induce apoptosis | particular relevance | 
Cc1c(Cl)cc(NC(=S)Nc2ccccc2C(F)(F)F)c(O)c1Cl [Compound 261] |  |  |  |  |  |  |  |  | < 10 µM | 10 to 50 µM | 10 to 50 µM |  | 10 to 50 µM |  |  | 10 to 50 µM
O=C(Nc1cc(Cl)cc(Cl)c1O)c1ccc(-c2ccccc2)cc1 [Compound 645] |  |  |  |  |  | > 100 µM |  |  | < 10 µM | < 10 µM | < 10 µM | particular relevance | < 10 µM |  |  | 
